Test results published in patent US12318373B2, “Methods of treating gastrointestinal stromal tumors” (Deciphera Pharmaceuticals, LLC, priority 2019, dated 2025).

Legend:
[1] = Example 8: coadministration with proton-pump inhibitor (pantoprazole), exposure; assay type: in vivo
Protocol: The effect of a proton-pump inhibitor on the exposure of ripretinib was evaluated.

GIST = assay: Example 4: phase 1 study, efficacy by line of therapy at 150 mg QD; assay type: in vivo, human
Protocol: Efficacy and safety results from the escalation and expansion phases of a phase 1 study for patients with GIST treated at ripretinib 150 mg QD as the starting dose in 28-day cycles are presented. Local, investigator-assessed Response Evaluation Criteria in Solid Tumors (RECIST 1.1) response assessments were performed every 2 cycles, and patients in the expansion cohorts who progressed per RECIST 1.1 were allowed to dose escalate to 150 mg BID.
142 patients with GIST in the escalation and expansion phases were treated at 150 mg QD dose. Number of patients by line of therapy were as follows: 31 2nd line, 28 3rd line, and 83≥4th line patients. 135 patients (95.1%) had KIT-mutant GIST, and 7 patients (4.9%) had PDGFRA-mutant GIST.
For example, the confirmed-only complete response (CR), partial response (PR), stable disease, and progressive disease are presented in Table 4. The objective response rate data in Table 4 relates to the proportion of patients with CR+PR. The median PFS data in Table 4 refers to progression-free survival per investigator assessment, by line of therapy.

[2] = Example 7: coadministration with strong CYP3A inhibitor (itraconazole), exposure; assay type: in vivo; conditions: coadministration of ripretinib with itraconazole

In the case of CCn1c(=O)c(-c2cc(NC(=O)Nc3ccccc3)c(F)cc2Br)cc2cnc(NC)cc21 [ripretinib], the “Effect on ripretinib exposure” value ([1]; 40 mg QD pantoprazole with 150 mg QD ripretinib) is reported as “did not affect”, the “Difference in plasma exposure” value ([1]; ripretinib coadministered with pantoprazole) is reported as “No clinically significant differences” and the “Duration of response, Median” value (GIST; 150 mg QD, 2nd Line) is reported as 80 weeks. The “Best response (confirmed only): PR, %” value (GIST; 150 mg QD, 2nd Line (n = 31)) was “(19.4) %”, the “Best response (confirmed only): Progressive disease, %” value (GIST; 150 mg QD, 2nd Line (n = 31)) was “(12.9) %” and the “Best response (confirmed only): Stable disease, %” value (shortened to “Best response … Stable disease, %”) (GIST; 150 mg QD, 2nd Line (n = 31)) was “(67.7) %”. The “PFS, Median” value (GIST; 150 mg QD, 2nd Line (n = 31), investigator assessment) was 46.4 weeks, the “Duration of response: Number of events” value (GIST; 150 mg QD, 2nd Line, n = 6 responders) was 3 and the “Best response (confirmed only): PR, %” value (GIST; 150 mg QD, 3rd Line (n = 28)) was “(14.3) %”. The “Best response (confirmed only): Progressive disease, %” value (GIST; 150 mg QD, 3rd Line (n = 28)) was “(21.4) %”, the “Best response … Stable disease, %” value (GIST; 150 mg QD, 3rd Line (n = 28)) was “(64.3) %” and the “PFS, Median” value (GIST; 150 mg QD, 3rd Line (n = 28), investigator assessment) was 36.3 weeks. For the same compound, the “Duration of response: Number of events” value (GIST; 150 mg QD, 3rd Line, n = 4 responders) was 1, the “Duration of response, Median” value (GIST; 150 mg QD, ≥4th Line) was 76.1 weeks and the “Best response (confirmed only): No response assessment, %” value (GIST; 150 mg QD, ≥4th Line (n = 83)) was “(6.0) %”. The “Best response (confirmed only): Not evaluable, %” value (GIST; 150 mg QD, ≥4th Line (n = 83)) was “(1.2) %”, the “Best response (confirmed only): PR, %” value (GIST; 150 mg QD, ≥4th Line (n = 83)) was “(7.2) %” and the “Best response (confirmed only): Progressive disease, %” value (GIST; 150 mg QD, ≥4th Line (n = 83)) was “(26.5) %”. The “Best response … Stable disease, %” value (GIST; 150 mg QD, ≥4th Line (n = 83)) was “(59.0) %”, the “PFS, Median” value (GIST; 150 mg QD, ≥4th Line (n = 83), investigator assessment) was 23.9 weeks and the “Duration of response: Number of events” value (GIST; 150 mg QD, ≥4th Line, n = 6 responders) was 3. For the same compound, the “PFS of second and third-line patients with Exons 9, 11, 13, or 17 KIT mutations” value (GIST; FIG. 27) was “comparable PFS”, the “Clinical benefit after dose escalation to 150 mg BID (PFS1 vs PFS2)” value (GIST; regardless of line of therapy, investigator assessment, FIGS. 25A, 25B) was “additional clinical benefit” and the “Increase in AUC0-inf” value [2] was 99%. For the same compound, the “Increase in Cmax” value [2] was 36%.
